These results are taken from patent US20040014694A1, “Use of docetaxel/doxorubicin/cyclophosphamide in adjuvant therapy” (priority 2002, published 2004).

Each structure is given as a SMILES string.

Test [1] can be described thus: In-house proprietary studies of docetaxel alone, overall response rate. The test is classed as in vivo. To be noted: first line therapy. How it is done: Docetaxel alone, in several in-house proprietary studies, gave overall response rates of 40 to 43% (in second line therapy at a dose of 100 mg/m^2), 48% (in first line therapy at a dose of 75 mg/m^2) and 61% (in first line therapy at a dose of 100 mg/m^2).

Test [2] deals with metastatic breast cancer (MBC). The following applies: MBC progressing despite previous anthracycline containing chemotherapy; cited from earlier work.
The subject of a further test is advanced breast cancer. To be noted: advanced breast cancer after anthracycline failure; cited from earlier work.

In the case of `CC(=O)O[C@@]12CO[C@@H]1C[C@H](O)[C@@]1(C)C(=O)[C@H](O)C3=C(C)[C@@H](OC(=O)[C@H](O)[C@@H](NC(=O)OC(C)(C)C)c4ccccc4)C[C@@](O)([C@@H](OC(=O)c4ccccc4)[C@H]21)C3(C)C` [Docetaxel, docetaxel], the values for the overall response rate in test [1] (dose 75 mg/m^2) and in test [1] (dose 100 mg/m^2) were 48% and 61%, respectively. For the same compound, the “response, median time to progression (TTP), and survival compared with MV” value in test [2] is listed as “significantly superior to MV”. In the test on advanced breast cancer, the “response rate and TTP compared with MF” value was “superior to sequential methotrexate and 5-fluoruracil”.
